Test results: patent publication US20190169134A1, “NOVEL CLASS OF QUINOLONE HETEROCYCLIC AROMATIC MOLECULES FOR CANCER TREATMENT” (RenoTarget Therapeutics, Inc., priority 2016, published 2019)

Legend:
HCC827P = test: Cell growth inhibition by SRB method; type: cell-based, human; conditions: for IC50: 72 hrs exposure, SRB
Source text: (§1) Six human cancer cell lines have been used to evaluate effects of the compounds on proliferation of cancer cells. These cell lines include HCC827-P (or HCC827 parent cells), human non-small lung cancer cells, Parent NSCLC HCC827 cell line (which harbors EGFR gene amplification, Exon 19 (E19) deletion, and Exon 21 mutation (Wang, Ramakrishnan et al. 2010), and is an EGFRi sensitive cell line (Kim, Kim et al. 2010)); HCC827-TR16 (Tarceva-resistant HCC727 cell line), HCC827-OR16 (AZD9291-resistant HCC727 cell line), LNCaP (human prostate cancer cells—a hormonal-therapy sensitive cell line (Wang, Liu et al. 1997)); 22RV1 (human prostate cancer cells—a hormonal-therapy resistant cell line (Sramkoski, Pretlow et al. 1999)); and ACHN (human renal adenocarcinoma cells (Park, Jung et al. 2003)). LNCaP cells and 22RV1 cells were purchased from the American Type Culture Collection (Rockville, Md.) and others were gifts of friends.
(§2) To evaluate activities of new compounds on growth of EGFR-inhibitor-resistant cells, two EGFRi-resistant cell lines, i.e., HCC827-TR16 and HCC827-OR16 were established using a method described by Eberlein et al. (Eberlein, Stetson et al. 2015). […] Resistant cells were collected and stabilized after 5 weeks (cycle 5). […] The resistant cells were sorted using 96-well dishes by culturing cells with density of 0.1, 1, 10, and 100 cells per well.
(§3) All cell lines were maintained in RPMI-1640 (GIBCO, Gaithersburg, Md.) with 10% heat-inactivated bovine serum (FBS) (Wang, Ossowski et al. 2004).
(§4) Sulforhodamine B (SRB) was used to estimate cell growth as described previously (Skehan, Storeng et al. 1990). Briefly, cells grown exponentially were aliquoted into 96-well plates at a density of 2,500 to 5,000 cells/200 μl per well in RPMI 1640 medium containing 10% FBS. After twenty-four hours, the cells were exposed to indicated concentrations of tested compounds for 72 hrs or otherwise as indicated. The cells were then fixed with 10% trichloride acetic acid for 2 h at 4° C. The 10% trichloride acetic acid was removed, and the dishes were washed 5 times with tape water, and air-dried. The fixed and dried cells were then stained with 0.4% SRB in 1% acetic acid for 25 min, and the dishes were washed 5 times with 1% acetic acid and air-dried overnight. 200 μl of 10 mM of Tris buffer (pH 10.0) were added, and the dishes were rotated to completely dissolve the color. Absorbance at 570 nm, with a reference wavelength 690 nm, was measured on a 96-well microplate reader (SPECTRO Star^Nano, BMG Labtech). Mean, standard deviation (SD) and the percent of growth inhibition at each concentration point of the treatment were calculated. The percent of growth inhibition as defined as (1−T/C)×100 where T is the mean of the absorbance at 570 nm from the treatment, and C from control (drug vehicle only). IC50 was calculated using Sigma-plot software by regression of growth-concentration curve from each drug treatment.

22RV1 = test: Cell growth inhibition by SRB method; type: cell-based, human; conditions: for growth inhibition of 22RV1 cells (in words): EGFR negative cell line, 72 hrs, FIG. 2 and 3; for IC50: 72 hrs exposure, SRB
Source text: as §1, §3, §4

HCC827OR16 = test: Cell growth inhibition by SRB method; type: cell-based, human; conditions: AZD9291-resistant line, 72 hrs exposure
Source text: as §1, §2, §3, §4

HCC827TR16 = test: Cell growth inhibition by SRB method; type: cell-based; conditions: Homo sapiens, Tarceva-resistant line, 72 hrs exposure
Source text: as §1, §2, §3, §4

LNCaP = test: Cell growth inhibition by SRB method; type: cell-based, human; conditions: for IC50: Homo sapiens, LNCaP, 72 hrs exposure, SRB
Source text: as §1, §3, §4

[1] = tested on: HCC827 P and HCC827 TR cells; test: Reno647/Carboplatin combination, median effects (SRB, CalcuSyn); type: cell-based, human
Description: As described in Example 2.1. Two cell lines, HCC827-P and HCC827-TR (Tarceva-resistant HCC727 cells-an EGFRi resistant cell line with MET amplification) (Wang, Pursell et al. 2013) were used in the combination study. Exponentially growing HC[…] and HCC827-TR cells were seeded into 96-wells dishes at density of 3,000 cells per well. Twenty-four hours later, the cells were exposed concurrently to serial dilution of Reno647 or Carboplatin or Camptothecin alone or in combination at a ratio of 1:50 with Carboplatin or at ratio 1:1 with Camptothecin for 3 days. Reno647 were concurrently and sequentially with paclitaxel (Taxol) at ratio of 200:1 for 6 days. For sequential exposure, the cells were treated with Reno647 for 3 days, after removal of the drug containing medium, the cells were treated with Taxol for additional 3 days, or the cells were treated by Taxol first followed by the treatment with Reno 647. After incubation for 6 days, the cell growth was measured by SRB as described previously in Example 2.1 section, and the percentages of inhibition (1-T/C) % were calculated, and data were analyzed by a PC program, CalcuSyn, Biosoft (edited by T.-C. Chou, Memorial Sloan-Kettering Cancer Center, New York, and M. P. Hayball, at Cambridge, UK, 1996). The computer-calculated combination index (CI) was used to judge the outcomes of a combination: […] It has long been accepted that chemotherapy provided some benefit for patients with non-small-cell lung cancer (NSCLC) in terms of quality of life and symptomatology as well as modest improvements in survival. […] Cell growth was determined by SRB as described above.

ACHN = test: Cell growth inhibition by SRB method; type: cell-based, human; conditions: 72 hrs exposure
Source text: as §1, §3, §4

tested cancer cell lines = test: Cell growth inhibition by SRB method, tested cancer cell lines overall; type: cell-based, human; conditions: data not provided
Source text: as §1, §3, §4

Row | IC50 (HCC827OR16; Homo sapiens) [nM] | IC50 (HCC827P; Homo sapiens) [nM] | IC50 (HCC827TR16) [nM] | IC50 (22RV1; Homo sapiens, 22Rv1) [nM] | IC50 (LNCaP) [nM] | Compound | activities against all tested cancer cells lines compared with NK-2206 and MLN8237 (tested cancer cell lines) | further results
1 | – | – | – | – | – | O=C(c1cc(Cc2n[nH]c(=O)c3ccccc23)ccc1F)N1CCN(C(=O)C2CC2)CC1 [AZD2281, reference compound] | – | growth inhibition of HCC827P cells (in words) (HCC827P; EGFR positive cell line, 72 hrs, FIG. 3): no activity; growth inhibition of 22RV1 cells (in words) (22RV1): significantly inhibited
2 | 2000 | < 200 | 1200 | 650 | 2000 | C=CC(=O)Nc1cc(Nc2nccc(-c3cn(C)c4ccccc34)n2)c(OC)cc1N(C)CCN(C)C [AZD9291, reference compound] | – | –
3 | – | – | – | – | – | N.N.O=C([O-])C1(C(=O)[O-])CCC1.[Pt+2] [Carboplatin, reference compound] | – | dose reduction in combination ([1]; Reno647:Carboplatin 1:50): 2 fold; median effects, two drugs combined ([1]; Reno647:Carboplatin 1:50, concurrent, cell line not stated): 3.38 µM; median effects, drug alone ([1]; single agent, cell line not stated): 8.39 µM
4 | > 5000 | 200 | > 5000 | > 5000 | – | C#Cc1cccc(Nc2ncnc3cc(OCCOC)c(NC(=O)c4ccc(Br)c([N+](=O)[O-])c4)cc23)c1 [Reno636, 4-Bromo-N-[4-(3-ethynyl-phenylamino)-7-(2-methoxy-ethoxy)-quinazolin-6-yl]-3-nitro-benzamide] | better activities | IC50 (ACHN; Homo sapiens, ACHN): > 5000 nM
5 | > 5000 | 150 | > 5000 | > 5000 | > 5000 | C#Cc1cccc(Nc2ncnc3cc(OCCOC)c(NC(=O)c4ccc(Cl)c([N+](=O)[O-])c4)cc23)c1 [Reno648, 4-Chloro-N-[4-(3-ethynyl-phenylamino)-7-(2-methoxy-ethoxy)-quinazolin-6-yl]-3-nitro-benzamide] | better activities | –
6 | 1800 | 200 | > 5000 | 2300 | > 5000 | C#Cc1cccc(Nc2ncnc3cc(OCCOC)c(NC(=O)c4ccc(I)c([N+](=O)[O-])c4)cc23)c1 [Reno649, 4-Iodo-N-[4-(3-ethynyl-phenylamino)-7-(2-methoxy-ethoxy)-quinazolin-6-yl]-3-nitro-benzamide] | better activities | –
7 | – | – | – | – | – | (3-Ethynyl-phenyl)-[6-(2-methoxy-ethoxy)-7-nitro-naphthalen-1-yl]-amine [Reno635] | – | IC50 (HCC827OR16): > 5000 nM; IC50 (HCC827P): > 5000 nM; IC50 (22RV1): 5000 nM; IC50 (ACHN): 3750 nM

Row | Compound | IC50 (HCC827OR16; Homo sapiens) [nM] | IC50 (HCC827P; Homo sapiens) [nM] | IC50 (HCC827TR16) [nM] | IC50 (22RV1; Homo sapiens, 22Rv1) [nM] | IC50 (LNCaP) [nM] | activities against all tested cancer cells lines compared with NK-2206 and MLN8237 (tested cancer cell lines) | further results
8 | C#Cc1cccc(Nc2ncnc3cc(OCCOC)c(OCCOC)cc23)c1 [Tarceva, reference compound] | > 5000 | < 200 | > 5000 | > 5000 | > 5000 | – | IC50 HCC827OR16 (HCC827OR16): almost unmeasurable; growth inhibition of 22RV1 cells (in words) (22RV1): relatively weak response; IC50 (ACHN; Homo sapiens, ACHN): 625 nM; growth inhibition of LNCaP cells (in words) (LNCaP; 72 hrs, FIG. 2): relatively weak response
